Counter-ions that a name gives are not always drawn.
Legend:
Candida albicans A26 = assay: in vitro antifungal activity, Candida albicans (MIC); type: cell-based; conditions: 35° C., 48 hours, RPMI 1640 plus 10% fetal calf serum, 95-100% inhibition of growth, read-out: minimum inhibitory concentration (MIC), C.a.
Description: (§1) The antifungal activity was assayed in vitro against Candida abicans A26, Trichophyton mentagrophytes CDC27, and Aspergillus flavus M152. The inocula, previously frozen under liquid nitrogen in a lactose, glycerol and water solution, were standardized by counting spores with a hemocytometer. Final concentrations (C. albicans, 1×10^5 cells/m; T. mentagrophytes, 1×10^6 cells/ml; A. flavus, 1×10^5 cells/ml) in RPMI 1640 plus 10% fetal calf serum were added to each of the 96 wells of a microtiter plate (100 μl/well).The compounds to be tested were solubilized in either water or ethanol and added to the microtiter wells in serial dilutions to give final concentrations in the range 0.039-20 μg/ml. The plates were incubated at 35° C. for 48 hours. The minimum inhibitory concentration (MIC) values were determined as the highest dilution showing 95-100% inhibition of growth.
(§2) ^a Minimum inhibitory concentration expressed in μg/ml
^b C.a. means Candida albicans A26

[1] = test system: Trichophyton mentagrophytes CDC27; assay: in vitro antifungal activity, Trichophyton mentagrophytes (MIC); type: cell-based; conditions: 35° C., 48 hours, RPMI 1640 plus 10% fetal calf serum, 95-100% inhibition of growth, read-out: minimum inhibitory concentration (MIC), T.m.
Description: as §1, §2
^d T.m. means Trichophyton mentagrophytes CDC27

[2] = test system: thromboplastin clotting time in human plasma; assay: prothrombin time test (thromboplastin clotting time in human plasma); type: biochemical; conditions: 37° C., human plasma
Description: Briefly, to 0.1 ml of each of human plasma, normal saline and thromboplastin was added 0.03 ml of the test compound of the present invention (2 mg/ml in 50 percent methanol). The clotting time was measured at 37° C. with a Fibrometer.
^a Expressed in seconds
^b Concentration of compound tested in micrograms per milliliter of […]

Aspergillus flavus M152 = assay: in vitro antifungal activity, Aspergillus flavus (MIC); type: cell-based; conditions: 35° C., 48 hours, RPMI 1640 plus 10% fetal calf serum, 95-100% inhibition of growth, read-out: minimum inhibitory concentration (MIC), A.f.
Description: as §1, §2
^c A.f. means Aspergillus flavus M152

solubility in methanol = type: physicochemical
[3] = 45 micrograms per milliliter of plasma
[4] = 90 micrograms per milliliter of plasma
[5] = 180 micrograms per milliliter of plasma
[6] = 22 micrograms per milliliter of plasma

SMILES | MIC (Candida albicans A26) | MIC [1] | plasma prothrombin time [2, 3] | plasma prothrombin time [2, 4] | plasma prothrombin time [2, 5] | MIC (Aspergillus flavus M152) | plasma prothrombin time [2, 6] | plasma prothrombin time ([2]; 11 micrograms per milliliter of plasma) | solubility in methanol (solubility in methanol)
CCCCCOc1ccc(CC(CN)c2ccccc2)cc1.Cl (stereo not drawn) [Example 4, 4-(Pentyloxy)-β-phenylbenzenepropanamine hydrochloride] | 10 mg/L | 5 mg/L | 37 s | 91 s | > 300 s | 5 mg/L |  |  | 
CCCCOc1ccc(CC(CN)c2ccccc2)cc1.Cl (stereo not drawn) [Example 6, 4-(Butyloxy)-β-phenylbenzenepropanamine hydrochloride] | 10 mg/L | 5 mg/L | 26 s | 46 s | 83 s | 5 mg/L | 20 s |  | 
CCCCCCOc1ccc(CC(CN)c2ccccc2)cc1 (stereo not drawn) [Example 1, 4-(Hexyloxy)-β-phenylbenzenepropanamine] | 10 mg/L | 10 mg/L | 91 s | > 300 s | > 300 s | 10 mg/L | 43 s | 32 s | 
CCCCCCOc1ccc(CC(CN)c2ccc(OC)c(OC)c2)cc1 (stereo not drawn) [Example 16, .varies.-(Hexyloxy)-β-(3,4-dimethoxy)phenylbenzenepropanamine hydrochloride] | 20 mg/L | 10 mg/L | 57 s | 81 s | 235 s | 10 mg/L | 27 s |  | 
CCCCCCOc1ccc(CC(CN)c2ccc(F)cc2)cc1 (stereo not drawn) [Example 26, 4(Hexyloxy)-β-(4-fluorophenyl)benzenepropanamine] | 10 mg/L | 10 mg/L | 29 s | 67 s | 500 s | 5 mg/L |  |  | 
CCCCCCCOc1ccc(CC(CN)c2ccc(OC)cc2)cc1 (stereo not drawn) [Example 21, 4-(Heptyloxy)-β-(4-methoxy)phenylbenzenepropanamine] |  |  |  |  |  |  |  |  | insoluble
CC(CCc1ccc(OCCC2CCCCC2)cc1)NC1CCCC(C(F)(F)F)C1 (stereo not drawn) [Example 39, 4-(2-Cyclohexylethoxy)-α-methyl-N-[3-(trifluoromethyl)-cyclohexyl]benzenepropanamine hydrochloride] | 5 mg/L | > 20 mg/L | 90 s |  |  | > 20 mg/L |  |  | 
